Source: patent EP4603105A1, “PHARMACEUTICAL COMPOSITION CONTAINING CYCLIC COMPOUND HAVING SELECTIVE KRAS INHIBITORY EFFECT AGAINST HRAS AND NRAS” (CHUGAI SEIYAKU KABUSHIKI KAISHA, priority 2022, dated 2024)
Where two headings read alike, the source gives them in different places.

Key:
[1] = target: GDP-bound KRAS wild-type protein (Homo sapiens, UniProt P01116); assay: Binding to KRAS by surface plasmon resonance (SPR), dissociation constant KD
Procedure, shortened: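 Recombinant RAS proteins bearing a biotinylated Avi tag and loaded with GDP served as the captured ligand, recaptured fresh every cycle. Binding responses were referenced to an uncoated surface and a buffer-only blank cycle. Dissociation constants were obtained by 1:1 model fitting at 30°C.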

[2] = system: human lung cancer strain NCI-H441; assay: NCI-H441 cell proliferation inhibitory activity (CellTiter-Glo, 4 days); type: cell-based; settings: read-out: NCl-H441 IC50
Procedure, shortened: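 Proliferation was scored by […] measured after the reagent was added to cultures kept at 37°C in 5% carbon dioxide.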

[3] = target: GDP-bound NRAS wild-type protein (Homo sapiens, UniProt P01111); assay: Binding to NRAS by surface plasmon resonance (SPR), KD and KD ratio to KRAS
Procedure, shortened: (§1)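 SPR, 30°C: Avi-biotin RAS·GDP captured via Biotin CAPture (~100–300 RU); running buffer HBS pH 7.4, 1 mM DTT, 10 mM MgCl2, 0.01% Tween 20, 10 µM GDP, 4% DMSO. Single-cycle kinetics, 100 µL/min, 75 s injections; 1:1 model → KD.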

HRAS wild-type protein = HRAS wild-type protein (Homo sapiens, UniProt P01112); assay: Binding to HRAS by surface plasmon resonance (SPR), KD and KD ratio to KRAS
Procedure, shortened: as §1

[4] = ratio of KD for GDP-bound NRAS wild-type protein to KD for KRAS
[5] = ratio of KD for HRAS wild-type protein to KD for KRAS
[6] = Single Cycle Kinetics, 1:1 binding model
[7] = 50% proliferation inhibitory concentration, four days
[8] = ratio of KD with respect to GDP-bound NRAS wild-type protein to KD with respect to KRAS
[9] = ratio of KD with respect to HRAS wild-type protein to KD with respect to KRAS

Sequence of GDP-bound NRAS wild-type protein (P01111 whole entry): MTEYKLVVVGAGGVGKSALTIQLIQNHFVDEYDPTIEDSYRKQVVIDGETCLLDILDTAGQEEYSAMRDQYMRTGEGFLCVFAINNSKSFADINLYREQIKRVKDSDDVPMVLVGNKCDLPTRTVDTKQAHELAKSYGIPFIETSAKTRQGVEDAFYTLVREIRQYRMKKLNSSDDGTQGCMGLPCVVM
Sequence of GDP-bound KRAS wild-type protein (P01116 1-188 isoform P01116-2): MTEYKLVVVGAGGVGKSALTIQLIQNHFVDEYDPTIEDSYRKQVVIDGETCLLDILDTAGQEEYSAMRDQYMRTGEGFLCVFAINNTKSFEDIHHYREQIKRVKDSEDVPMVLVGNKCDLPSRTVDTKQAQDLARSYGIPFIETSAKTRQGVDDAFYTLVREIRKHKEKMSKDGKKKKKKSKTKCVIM
Sequence of HRAS wild-type protein (P01112 whole entry): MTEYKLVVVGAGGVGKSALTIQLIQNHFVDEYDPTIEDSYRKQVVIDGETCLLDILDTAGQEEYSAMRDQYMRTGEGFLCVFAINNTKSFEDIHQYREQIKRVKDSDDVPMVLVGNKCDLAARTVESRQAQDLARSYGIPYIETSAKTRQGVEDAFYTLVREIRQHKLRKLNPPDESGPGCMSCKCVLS

| Structure (SMILES) | Kd ([1]; 1:1 binding model) | IC50 ([2]; NCI-H441 cells, 4 days) | NRAS /KRAS [3, 4] | HRAS /KRAS (HRAS wild-type protein; [5]) | Kd ([1]; Single Cycle Kinetics) | Kd [1, 6] | IC50 [2, 7] | NRAS /KRAS [3, 8] | HRAS /KRAS (HRAS wild-type protein; [9]) |
| --- | --- | --- | --- | --- | --- | --- | --- | --- | --- |
| CCCOC[C@H]1C(=O)N[C@@H]([C@@H](C)CC)C(=O)N(C)CC(=O)N(C)[C@H]2C/C=C\CCN(C2=O)[C@@H](CC2CCC(F)(F)CC2)C(=O)N(C)CC(=O)N[C@@H](CCc2ccc(C(F)(F)F)c(OC)c2)C(=O)N2C[C@@H](C)C[C@H]2C(=O)NC2(CC(C)(C)C2)C(=O)N(C)[C@@H](C(CC)CC)C(=O)N(C)[C@H](C(=O)N(C)C)CC(=O)N1C [PP2483] | 1.6 nM | 195 nM | A (a compound having 10 or more and less than 20 is denoted as A) | A (a compound having 10 or more and less than 20 is denoted as A) |  |  |  |  |  |
| CCO[C@@H]1C[C@H]2C(=O)NC3(CCCC3)C(=O)N(C)[C@@H](C3CCCC3)C(=O)N(C)[C@H](C(=O)N(C)C)CC(=O)N(C)[C@@H](CC(C)C)C(=O)N[C@@H]([C@@H](C)CC)C(=O)N(C)CC(=O)N(C)[C@H]3C/C(F)=C\CCN(C3=O)[C@@H](Cc3ccc(C)cc3)C(=O)N(C)CC(=O)N[C@@H](CCc3ccc(C(F)(F)F)c(OC)c3)C(=O)N2C1 [PP3512] |  | 8.8 nM | B (a compound having 3 or more and less than 10 is denoted as B) | B (a compound having 3 or more and less than 10 is denoted as B) | 0.25 nM |  |  |  |  |
| CCCOC[C@H]1C(=O)N[C@@H]([C@@H](C)CC)C(=O)N(C)CC(=O)N(C)[C@H]2C/C=C\CCN(C2=O)[C@@H](CC2CCC(F)(F)CC2)C(=O)N(C)CC(=O)N[C@@H](CCc2ccc(C(F)(F)F)c(OC)c2)C(=O)N2C[C@H](OCC)C[C@H]2C(=O)NC2(CC(C)(C)C2)C(=O)N(C)[C@@H](C(CC)CC)C(=O)N(C)[C@H](C(=O)N(C)C)CC(=O)N1C [PP2464] | 0.98 nM | 66 nM | A (a compound having 10 or more and less than 20 is denoted as A) | A (a compound having 10 or more and less than 20 is denoted as A) |  |  |  |  |  |
| CCO[C@@H]1C[C@H]2C(=O)NC3(CCC3)C(=O)N(C)[C@@H](C3CCCC3)C(=O)N(C)[C@H](C(=O)N(C)C)CC(=O)N(C)[C@@H](Cc3ccc(Cl)c(Cl)c3)C(=O)N[C@@H]([C@@H](C)CC)C(=O)N(C)CC(=O)N(C)[C@H]3CCCCCN(C3=O)[C@@H](Cc3ccc(F)cc3)C(=O)N(C)CC(=O)N[C@@H](CCc3cc(F)c(C(F)(F)F)c(F)c3)C(=O)N2C1 [PP1158] |  |  |  |  |  | 0.18 nM | 57.5 nM | B (a compound having 3 or more and less than 10 is denoted as B) | B (a compound having 3 or more and less than 10 is denoted as B) |
| CCC[C@H]1C(=O)N[C@@H]([C@@H](C)CC)C(=O)N(C)CC(=O)N(C)[C@H]2C/C=C\CCN(C2=O)[C@@H](Cc2ccc(C(F)(F)F)cc2)C(=O)N(C)CC(=O)N[C@@H](CCc2ccc(C(F)(F)F)c(OC)c2)C(=O)N2CC3(CC3)C[C@H]2C(=O)NC2(CCC2)C(=O)N(C)[C@@H](C2CCCC2)C(=O)N(C)[C@H](C(=O)N(C)C)CC(=O)N1C [PP3438] |  | 8.9 nM | A (a compound having 10 or more and less than 20 is denoted as A) | A (a compound having 10 or more and less than 20 is denoted as A) | 0.062 nM |  |  |  |  |
| CCO[C@@H]1C[C@H]2C(=O)NC3(CCC3)C(=O)N(C)[C@@H](C3CCCC3)C(=O)N(C)[C@H](C(=O)N3CCC3)CC(=O)N(C)[C@@H](CC)C(=O)N[C@@H]([C@@H](C)CC)C(=O)N(C)CC(=O)N(C)[C@H]3C/C=C\CCN(C3=O)[C@@H](CC3CCC(F)(F)CC3)C(=O)N(C)CC(=O)N[C@@H](CCc3cc(F)c(C(F)(F)F)c(F)c3)C(=O)N2C1 [PP1444] |  |  |  |  |  | 0.19 nM | 103 nM | A (a compound having 10 or more and less than 20 is denoted as A) | A (a compound having 10 or more and less than 20 is denoted as A) |
| CC[C@H](C)[C@@H]1NC(=O)[C@H](CC2CC2)N(C)C(=O)C[C@@H](C)N(C)C(=O)[C@H](C2CCCC2)N(C)C(=O)C2(CCC2)NC(=O)[C@H](CCC(F)F)N(C)C(=O)[C@H](CCc2cc(F)c(C(F)(F)F)c(F)c2)NC(=O)CN(C)C(=O)[C@H](Cc2ccc(C(F)(F)F)cc2)N2CC/C=C\C[C@@H](C2=O)N(C)C(=O)CN(C)C1=O [PP1404] |  |  |  |  |  | 4.8 nM | 498 nM | A (a compound having 10 or more and less than 20 is denoted as A) | A (a compound having 10 or more and less than 20 is denoted as A) |
| CCOC[C@H]1C(=O)N[C@@H]([C@@H](C)CC)C(=O)N(C)CC(=O)N(C)[C@H]2C/C=C\CCN(C2=O)[C@@H](Cc2ccc(C)cc2)C(=O)N(C)CC(=O)N[C@@H](CCc2ccc(C(F)(F)F)c(OC)c2)C(=O)N2C[C@@H](C)C[C@H]2C(=O)NC2(CC(C)(C)C2)C(=O)N(C)[C@@H](C2CCCC2)C(=O)N(C)[C@H](C(=O)N(C)C)CC(=O)N1C [PP2505] | 0.13 nM | 17.2 nM | A (a compound having 10 or more and less than 20 is denoted as A) | B (a compound having 3 or more and less than 10 is denoted as B) |  |  |  |  |  |
| CCC[C@H]1C(=O)N[C@@H]([C@@H](C)CC)C(=O)N(C2CC2)CC(=O)N(C)[C@H]2C/C=C\CCN(C2=O)[C@@H](Cc2ccc(C)cc2)C(=O)N(C)CC(=O)N[C@@H](CCc2ccc(C(F)(F)F)c(OC)c2)C(=O)N2C[C@@H](C)C[C@H]2C(=O)N(C)C2(CCC2)C(=O)N(C)[C@@H](C2CCCC2)C(=O)N(C)[C@H](C(=O)N(C)C)CC(=O)N1C [PP2366] | 0.048 nM | 4.5 nM | A (a compound having 10 or more and less than 20 is denoted as A) | A (a compound having 10 or more and less than 20 is denoted as A) |  |  |  |  |  |
| CCCO[C@H](C)[C@@H]1NC(=O)[C@H](COCC)N(C)C(=O)C[C@@H](C(=O)N(C)CC)N(C)C(=O)[C@H](C2CCCC2)N(C)C(=O)C2(CC(C)(C)C2)NC(=O)[C@@H]2C[C@@H](OCC)CN2C(=O)[C@H](CCc2cc(F)c(C(F)(F)F)c(F)c2)NC(=O)CN(C)C(=O)[C@H](Cc2ccc(C)cc2)N2CC/C=C\C[C@@H](C2=O)N(C)C(=O)[C@@H]2CCCN2C1=O [PP2436] | 1.6 nM | 126 nM | A (a compound having 10 or more and less than 20 is denoted as A) | A (a compound having 10 or more and less than 20 is denoted as A) |  |  |  |  |  |
| CCO[C@@H]1C[C@H]2C(=O)NC3(CCC3)C(=O)N(C)[C@@H](C(CC)CC)C(=O)N(C)[C@H](C(=O)N(C)C)CC(=O)N(C)[C@@H](COC)C(=O)N[C@@H]([C@@H](C)CC)C(=O)N(C)CC(=O)N(C)[C@H]3C/C=C\CCN(C3=O)[C@@H](Cc3ccc(C(F)(F)F)cc3)C(=O)N(C)CC(=O)N[C@@H](CCc3ccc(Cl)c(Cl)c3)C(=O)N2C1 [PP1221] |  |  |  |  |  | 0.4 nM | 40.6 nM | AA (a compound having 20 or more is denoted as AA) | A (a compound having 10 or more and less than 20 is denoted as A) |
| C#CC[C@H]1C(=O)N[C@@H]([C@@H](C)CC)C(=O)N(C2CC2)CC(=O)N(C)[C@H]2C/C=C\CCN(C2=O)[C@@H](Cc2ccc(C)cc2)C(=O)N(C)CC(=O)N[C@@H](CCc2ccc(C(F)(F)F)c(Cl)c2)C(=O)N2C[C@H](OCC)C[C@H]2C(=O)N(C)C2(CCC2)C(=O)N(C)[C@@H](C2CCCC2)C(=O)N(C)[C@H](C(=O)N(C)C)CC(=O)N1C [PP3251] |  | 4.1 nM | B (a compound having 3 or more and less than 10 is denoted as B) | B (a compound having 3 or more and less than 10 is denoted as B) | 0.12 nM |  |  |  |  |
| CCC[C@H]1C(=O)N[C@@H](C2CCCC2)C(=O)N(C)CC(=O)N(C)[C@H]2C/C=C\CCN(C2=O)[C@@H](Cc2ccc(C)cc2)C(=O)N(C)CC(=O)N[C@@H](CCc2ccc(C(F)(F)F)c(OC)c2)C(=O)N2CC3(CC3)C[C@H]2C(=O)N(C)C2(CCC2)C(=O)N(C)[C@@H](C(CC)CC)C(=O)N(C)[C@H](C(=O)N(C)C)CC(=O)N1C [PP3316] |  | 11.2 nM | A (a compound having 10 or more and less than 20 is denoted as A) | B (a compound having 3 or more and less than 10 is denoted as B) | 0.17 nM |  |  |  |  |
| CC[C@H](C)[C@@H]1NC(=O)[C@H](CC)N(C)C(=O)C[C@@H](C(=O)N(C)C)N(C)C(=O)[C@H](C2CCCC2)N(C)C(=O)C2(CCC2)NC(=O)[C@@H]2C[C@H](C)CN2C(=O)[C@H](CCc2cc(F)c(C(F)(F)F)c(F)c2)NC(=O)CN(C)C(=O)[C@H](Cc2ccc(C(F)(F)F)cc2)N2CC/C=C\C[C@@H](C2=O)N(C)C(=O)CN(C)C1=O [PP1134] |  |  |  |  |  | 0.06 nM | 20 nM | A (a compound having 10 or more and less than 20 is denoted as A) | B (a compound having 3 or more and less than 10 is denoted as B) |
